Blank lines part the entries; values can stand above or below the molecule they belong to.
How the values were obtained:
[1] = test system: Subcutaneous KB Cell Tumors; conditions: mouse, in vivo, iv; for Tumor-to-Non-target Ratio: Tumor/blood / Tumor-to-Non-target Ratio: Tumor/kidney / Tumor-to-Non-target Ratio: Tumor/liver / Tumor-to-Non-target Ratio: Tumor/muscle: 240 min; for Percentage of Injected Dose per Gram of Tissue: Blood / Percentage of Injected Dose per Gram of Tissue: Heart / Percentage of Injected Dose per Gram of Tissue: Kidney / Percentage of Injected Dose per Gram of Tissue: Liver / Percentage of Injected Dose per Gram of Tissue: Lungs / Percentage of Injected Dose per Gram of Tissue: Muscle / Percentage of Injected Dose per Gram of Tissue: Tumor: 4 h
[2] = test system: KB cells; test: Uptake of ^67 Ga-DF-folate complex by cultured KB cells; format: cell-based, human
Experimental: Cell Culture. KB cells, a human nasopharyngeal epidermal carcinoma cell line that greatly overexpresses the folate binding protein, were cultured continuously as a monolayer at 37° C. in a humidified atmosphere containing 5% CO2 in folate-deficient modified Eagle's medium (FDMEM) (a folate-free modified Eagle's medium supplemented with 10% (v/v) heat-inactivated fetal calf serum as the only source of folate) containing penicillin (50 units/mL), streptomycin (50 μg/mL), and 2 mM L-glutamine. The final folate concentration in the complete FDMEM is the physiological range (~2 nM). 48 h prior to each experiment, the cells were transferred to 35 mm culture dishes at 5×10^5 cells per dish and grown to ~80% confluent.
Because folate and its conjugates bind to cell surface receptors at 4° C., but are capable of endocytosis only at higher temperatures, it is possible to separately evaluate the kinetics of binding the internalization of folate by measuring the rates of folate conjugate uptake at the two temperatures. […] By the end of the 30 min incubation, binding approached to saturation with ~18% of the initial radioactivity found associated with a cell surface.
Incubation at 37° C., a temperature which permits both binding and endocytosis, yielded similar kinetic results, however, maximal uptake reached 32% of the total conjugate added. Presumably, the difference in magnitude of the two cellular uptake curves reflects the ability of the folate receptor to internalize the conjugate and then recycle to the cell surface in its unoccupied form. […] This latter result is consistent with the inability of the α-conjugate to compete with free folate for the cell surface receptor.
To verify the involvement of a cell surface folate receptor in mediating the uptake of ^67 Ga-DF-folate(γ), binding and internalization of the complex were evaluated as a function of the complex's concentration. Cellular uptake of ^67 Ga-DF-folate(γ) was concentration dependent at both 4° C. and 37° C., saturating at levels of 20% and 35% of the total radioactivity added, respectively.

[3] = In vivo delivery to mice of ^125 I soybean trypsin inhibitor; conditions: 15 minutes after tail vein injection, perfused
Experimental: Mice (25 g) were then injected with either the biotinylated SBTI or the control SBTI by insertion of a hypodermic syringe containing a 25 gauge needle into the tail vein of the mouse. After 15 minutes, each mouse was sacrificed and then perfused with heparin-containing isotonic saline via the direct cardiac influx and efflux method.

[4] = test system: KB Tumors; test: Biodistribution of ^125 I-RNase-Folate conjugate and ^125 I-RNase control following I.V. administration to athymic mice with KB tumors; conditions: folate-free diet

Tumor-to-Non-target Ratio: Tumor/blood [1]: 3.9 ± 1.2
Tumor-to-Non-target Ratio: Tumor/kidney [1]: 0.08 ± 0.01
Tumor-to-Non-target Ratio: Tumor/liver [1]: 1.16 ± 0.10
Tumor-to-Non-target Ratio: Tumor/muscle [1]: 2.56 ± 0.15
Percentage of Injected Dose per Gram of Tissue: Kidney [1]: 1.26 ± 0.19 % of injected dose per gram
Molecule: CC(=O)N([O-])CCCCCNC(=O)CCC(=O)N([O-])CCCCCNC(=O)CCC(=O)N([O-])CCCCCN.[67Ga+3] [^67 Ga-DF, reference compound]
Percentage of Injected Dose per Gram of Tissue: Blood [1]: 0.026 ± 0.009 % of injected dose per gram
Percentage of Injected Dose per Gram of Tissue: Heart [1]: 0.021 ± 0.002 % of injected dose per gram
Percentage of Injected Dose per Gram of Tissue: Liver [1]: 0.082 ± 0.010 % of injected dose per gram
Percentage of Injected Dose per Gram of Tissue: Lungs [1]: 0.054 ± 0.010 % of injected dose per gram
Percentage of Injected Dose per Gram of Tissue: Muscle [1]: 0.037 ± 0.001 % of injected dose per gram
Percentage of Injected Dose per Gram of Tissue: Tumor [1]: 0.094 ± 0.004 % of injected dose per gram
uptake by the KB cells ([2]; controls): did not show any significant uptake

Tumor-to-Non-target Ratio: Tumor/blood [1]: 0.84 ± 0.19
Tumor-to-Non-target Ratio: Tumor/kidney [1]: 2.4 ± 0.3
Tumor-to-Non-target Ratio: Tumor/liver [1]: 2.3 ± 0.2
Tumor-to-Non-target Ratio: Tumor/muscle [1]: 5.4 ± 0.7
Percentage of Injected Dose per Gram of Tissue: Blood [1]: 13.5 ± 3.2 % of injected dose per gram
Percentage of Injected Dose per Gram of Tissue: Heart [1]: 3.4 ± 0.2 % of injected dose per gram
Percentage of Injected Dose per Gram of Tissue: Kidney [1]: 4.6 ± 0.4 % of injected dose per gram
Percentage of Injected Dose per Gram of Tissue: Liver [1]: 4.7 ± 0.3 % of injected dose per gram
Percentage of Injected Dose per Gram of Tissue: Lungs [1]: 9.1 ± 2.7 % of injected dose per gram
Percentage of Injected Dose per Gram of Tissue: Muscle [1]: 2.04 ± 0.29 % of injected dose per gram
Percentage of Injected Dose per Gram of Tissue: Tumor [1]: 10.9 ± 0.2 % of injected dose per gram
Molecule: O=C([O-])CC(O)(CC(=O)[O-])C(=O)[O-].[67Ga+3] [^67 Ga-citrate, reference compound]
cell-associated ^67 Ga radioactivity, fold lower than ^67 Ga-DF-folate(γ) ([2]; 37° C., 30 min): 106 fold

The remaining lines, values behind:

B1: Control SBTI: ^125 I soybean trypsin inhibitor left as an unmodified control (protein, UniProt P01070 25-205, looked up)
Trypsin inhibitor A: DFVLDNEGNPLENGGTYYILSDITAFGGIRAAPTGNERCPLTVVQSRNELDKGIGTIISSPYRIRFIAEGHPLSLKFDSFAVIMLCVGIPTEWSVVEDLPEGPAVKIGENKDAMDGWFRLERVSDDEFNNYKLVFCPQQAEDDKCGDIGISIDHDDGTRRLVVSKNKPLVVQFQKLDKESL
modifications: 125I label
Counts per minute/gram wet weight: Brain [3]: 0 Counts per minute/gram wet weight
Counts per minute/gram wet weight: Heart [3]: 0 Counts per minute/gram wet weight
Counts per minute/gram wet weight: Intestine [3]: 0 Counts per minute/gram wet weight
Counts per minute/gram wet weight: Kidney [3]: 5152 Counts per minute/gram wet weight
Counts per minute/gram wet weight: Liver [3]: 535 Counts per minute/gram wet weight
Counts per minute/gram wet weight: Lung [3]: 107 Counts per minute/gram wet weight
Counts per minute/gram wet weight: Muscle [3]: 0 Counts per minute/gram wet weight

B2: ^125 I-RNase: ^125 I labeled ribonuclease (lacking folate), control (protein, UniProt P61823 27-150, looked up)
Ribonuclease pancreatic: KETAAAKFERQHMDSSTSAASSSNYCNQMMKSRNLTKDRCKPVNTFVHESLADVQAVCSQKNVACKNGQTNCYQSYSTMSITDCRETGSSKYPNCAYKTTQANKHIIVACEGNPYVPVHFDASV
modifications: 125I label
Percentage of Injected Dose per Gram: Brain ([4]; 1 hour after i.v.): 0.19 ± 0.06 % of injected dose per gram
Percentage of Injected Dose per Gram: Brain ([4]; 4 hours after i.v.): 0.06 ± 0.004 % of injected dose per gram
Percentage of Injected Dose per Gram: Brain ([4]; 24 hours after i.v.): 0.0055 ± 0.0006 % of injected dose per gram
